Measurements reported in US20250084078A1, “FUSED RING-SUBSTITUTED SIX-MEMBERED HETEROCYCLIC COMPOUND, AND PREPARATION METHOD THEREFOR AND USE THEREOF” (GENFLEFT THERAPEUTICS (SHANGHAI) INC., priority 2022, published 2025).

Molecular target: HPK1 (Homo sapiens, UniProt Q92918)
Assay: SLP76 phosphorylation assay (intracellular HPK1 inhibitory activity, p-SLP76 S376 ELISA in Jurkat cells)
Conditions: p-SLP76 IC50, Jurkat, Clone E6-1 cells; 1 h compound pre-incubation; anti-CD3 beads stimulation 20 min; Phospho-SLP-76 (Ser376) ELISA
Experimental: SLP76 Phosphorylation Assay
Intracellular HPK1 inhibitory activity was tested by the detection of SLP76 phosphorylation at S376.
Preparation of 1000× drug stock plate: a 1000× compound stock plate was prepared. […] The compound stock plate was sealed with a sealing film and stored in a −20° C. refrigerator for later use.
Preparation of Beads wash buffer: 0.1 mL FBS and 0.4 mL 0.5 M EDTA (with a final concentration of 2 mM) were added to 100 mL PBS and stored in a 4° C. refrigerator for later use.
100× Protease Inhibitor Cocktail in 1/20 total volume was added and stored on wet ice for later use. The buffer was ready to use.
Cell inoculation and dosing: the 1000× drug stock plate was taken and melted at room temperature in the dark. […] Jurkat cells in the logarithmic growth phase were selected and collected. […] The cells were inoculated into a 96-well plate (the volume was 90 μL per well), and a blank control well (without cells inoculation, and in which 110 μL of medium was added) was set. 10 μL of a drug-containing culture medium (10×) was transferred from the 10× drug intermediate plate into the 96-well cell plate (with a final concentration of 0.1% DMSO), and set a DMSO control group (in which 0.1% DMSO was added to the treated cells), a stimulated control group (in which 10 μL of culture medium was added to treat cells) and an unstimulated group (in which 10 μL of culture medium was added to treat cells). The wells were duplicated, gently patted, mixed, and then placed into a 5% CO2 incubator at 37° C. for 1 h.
Anti-CD3 beads stimulation: Dynabeads anti-human CD3 was taken, shaken, and mixed for 60 s. The required volume of beads was pipetted, and an equal volume or at least 1 mL of washing solution was added to wash once. Fresh complete medium was then added to resuspend and adjust the density of the beads to 4×10^7/mL, and the beads were placed on ice for later use. At the end of drug pre-incubation, the cell culture plate was taken out. 10 μL Dynabeads anti-human CD3 was added to each well to treat the cells, and 10 μL the culture medium was added to the unstimulated group. The cell culture plate was shaken to mix well at 2500 rpm for 10 s, and then placed into a 5% CO2 incubator at 37° C. and continued to culture for 20 min.
Detection of p-SLP76 protein level: PathScan Phospho-SLP-76 (Ser376) Sandwich ELISA Kit was applied to detect p-SLP76 protein level. At the end of the Anti-CD3 beads stimulation, the cell culture plate was removed from the incubator. […] After lysis, the cell culture plate was centrifuged at 4° C., 400×g for 5 min. 25 μL of sample and 75 μL of sample diluent were added to each well, and the plate was placed in a 5% CO2 incubator at 37° C. for 2 h. The subsequent detection steps were carried out following the kit instructions, and the absorbance (OD value) of each well was read at 450 nm by a microplate reader.

Sequence of HPK1 (Q92918 whole entry): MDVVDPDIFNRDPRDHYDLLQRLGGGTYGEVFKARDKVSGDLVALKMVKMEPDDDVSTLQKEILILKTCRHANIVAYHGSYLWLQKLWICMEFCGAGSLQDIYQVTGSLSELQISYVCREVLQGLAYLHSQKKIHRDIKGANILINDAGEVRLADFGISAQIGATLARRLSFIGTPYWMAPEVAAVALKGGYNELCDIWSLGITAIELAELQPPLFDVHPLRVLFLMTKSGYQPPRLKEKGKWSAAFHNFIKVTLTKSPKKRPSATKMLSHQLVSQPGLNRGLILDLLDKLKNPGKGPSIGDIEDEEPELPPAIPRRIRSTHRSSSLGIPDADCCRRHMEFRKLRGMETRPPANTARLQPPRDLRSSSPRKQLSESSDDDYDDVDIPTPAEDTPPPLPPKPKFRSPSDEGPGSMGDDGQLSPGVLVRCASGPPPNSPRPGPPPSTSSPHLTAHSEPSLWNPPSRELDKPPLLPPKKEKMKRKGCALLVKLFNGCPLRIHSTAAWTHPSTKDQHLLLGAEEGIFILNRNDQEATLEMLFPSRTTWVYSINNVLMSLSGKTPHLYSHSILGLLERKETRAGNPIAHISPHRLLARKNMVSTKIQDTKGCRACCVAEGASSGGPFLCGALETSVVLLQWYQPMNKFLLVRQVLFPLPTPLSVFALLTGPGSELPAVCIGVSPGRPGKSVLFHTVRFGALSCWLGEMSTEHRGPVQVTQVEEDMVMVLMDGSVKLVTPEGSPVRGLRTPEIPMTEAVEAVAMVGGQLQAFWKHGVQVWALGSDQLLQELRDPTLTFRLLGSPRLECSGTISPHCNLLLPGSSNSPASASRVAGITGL

| IC50 [nM] | Compound |
| --- | --- |
| 122 | C[C@H]1COCCN1C(=O)N1CCc2cc(-c3cnc4[nH]cc(Cl)c4n3)cc([C@@H]3COCCN3)c2C1 [Compound Z573] |
| 498 | Cc1c[nH]c2ncc(-c3cc4c(c([C@@H]5COCCN5)c3)CN(C(=O)N3CC5CCC(C3)C5O)CC4)cc12 (stereo partly drawn) [Compound Z551, (8-hydroxy-3-azabicyclo[3.2.1]octan-3-yl)(6-(3-methyl-1H-pyrrolo[2,3-b]pyridin-5-yl)-8-((R)-morpholin-3-yl)-3,4-dihydroisoquinolin-2(1H)-yl)methanone] |
| 304 | C=Cc1c[nH]c2ncc(-c3cc4c(c([C@@H]5COCCN5)c3)CN(C(=O)C(C)(C)O)CC4)cc12 [Compound Z508, (R)-2-hydroxy-2-methyl-1-(8-(morpholin-3-yl)-6-(3-vinyl-1H-pyrrolo[2,3-b]pyridin-5-yl)-3,4-dihydroisoquinolin-2(1H)-yl)propan-1-one] |
| 184 | C[C@@H]1CN(C(=O)N2CCc3cc(-c4cnc5[nH]cc(Cl)c5c4)cc([C@@H]4COCCN4)c3C2)C[C@@H](C)O1 [Compound Z599, (6-(3-chloro-1H-pyrrolo[2,3-b]pyridin-5-yl)-8-((R)-morpholin-3-yl)-3,4-dihydroisoquinolin-2(1H)-yl)((2R,6R)-2,6-dimethylmorpholinyl)methanone] |
| 144 | CC(C)(O)C(=O)N1CCc2cc(-c3cnc4[nH]cc(Cl)c4n3)cc([C@@H]3COCCN3)c2C1 [Compound Z465, (R)-3-(6-(7-chloro-5H-pyrrolo[2,3-b]pyrazin-2-yl)-2-(2-hydroxy-2-methylpropanoyl)-1,2,3,4-tetrahydroisoquinolin-8-yl)morpholine] |
| 173 | N#Cc1c[nH]c2ncc(-c3cc4c(c([C@@H]5COCCN5)c3)CN(C(=O)N3CC5CCC(C3)O5)CC4)cc12 [Compound Z515, 5-(2-(8-oxa-3-azabicyclo[3.2.1]octane-3-carbonyl)-8-((R)-morpholin-3-yl)-1,2,3,4-tetrahydroisoquinolin-6-yl)-1H-pyrrolo[2,3-b]pyridine-3-carbonitrile] |
| 160 | COc1c[nH]c2ncc(-c3cc4c(c([C@@H]5COCCN5)c3)CN(C(=O)N3C5CCC3COC5)CC4)cc12 [Compound Z582] |
| 1050 | Cc1c[nH]c2ncc(-c3cc4c(c([C@@H]5COCCN5)c3)CN(CC3(O)CCOCC3)CC4)cc12 [Compound Z538, (R)-4-((6-(3-methyl-1H-pyrrolo[2,3-b]pyridin-5-yl)-8-(morpholin-3-yl)-3,4-dihydroisoquinolin-2(1H)-yl)methyl)tetrahydro-2H-pyran-4-ol] |
| 153 | Cc1c[nH]c2ncc(-c3cc4c(c([C@@H]5COCCN5)c3)CN(C(=O)N3CC[C@@H](F)C3)CC4)cc12 [Compound Z486, ((R)-3-fluoropyrrolidin-1-yl)(6-(3-methyl-1H-pyrrolo[2,3-b]pyridin-5-yl)-8-((R)-morpholin-3-yl)-3,4-dihydroisoquinolin-2(1H)-yl)methanone] |
| 117 | O=C(N1CCc2cc(-c3cnc4[nH]cc(Cl)c4n3)cc([C@@H]3COCCN3)c2C1)N1CC2CCC1CO2 (stereo partly drawn) [Compound Z550, (2-oxa-5-azabicyclo[2.2.2]octan-5-yl)(6-(7-chloro-5H-pyrrolo[2,3-b]pyrazin-2-yl)-8-((R)-morpholin-3-yl)-3,4-dihydroisoquinolin-2(1H)-yl)methanone] |
| 195 | COC1CN(C(=O)N2CCc3cc(-c4cnc5[nH]cc(C)c5c4)cc([C@@H]4COCCN4)c3C2)C(C)(C)C1 (stereo partly drawn) [Compound Z461, (4-methoxy-2,2-dimethylpyrrolidin-1-yl)(6-(3-methyl-1H-pyrrolo[2,3-b]pyridin-5-yl)-8-((R)-morpholin-3-yl)-3,4-dihydroisoquinolin-2(1H)-yl)methanone] |
| 180 | Cc1c[nH]c2ncc(-c3cc4c(c([C@@H]5COCCN5)c3)CN(C(=O)N3C5CCC3CN(C)C5)CC4)cc12 [Compound Z471, (6-(3-methyl-1H-pyrrolo[2,3-b]pyridin-5-yl)-8-((R)-morpholin-3-yl)-3,4-dihydroisoquinolin-2(1H)-yl)(3-methyl-3,8-diazabicyclo[3.2.1]octan-8-yl)methanone] |
| 385 | Cc1cc(C(=O)N2CCc3cc(-c4cnc5[nH]cc(Cl)c5c4)cc([C@@H]4COCCN4)c3C2)nc(C)n1 [Compound Z531, (R)-(6-(3-chloro-1H-pyrrolo[2,3-b]pyridin-5-yl)-8-(morpholin-3-yl)-3,4-dihydroisoquinolin-2(1H)-yl)(2,6-dimethylpyrimidin-4-yl)methanone] |
| 364 | Cc1c[nH]c2ncc(-c3cc4c(c([C@@H]5COCCN5)c3)CN(C(=O)N3CCO[C@H](C)C3)CC4)cc12 [Compound Z484, (6-(3-methyl-1H-pyrrolo[2,3-b]pyridin-5-yl)-8-((R)-morpholin-3-yl)-3,4-dihydroisoquinolin-2(1H)-yl)((R)-2-methylmorpholino)methanone] |
| 112 | O=C(N1CCOCC1)N1CCc2cc(-c3cnc4[nH]cc(Cl)c4c3)cc([C@@H]3COCCN3)c2C1 [Compound Z483, (R)-(6-(3-chloro-1H-pyrrolo[2,3-b]pyridin-5-yl)-8-(morpholin-3-yl)-3,4-dihydroisoquinolin-2(1H)-yl)(morpholine)methanone] |
| 315 | Cc1c[nH]c2ncc(-c3cc4c(c([C@@H]5COCCN5)c3)CN(C(=O)c3cnn(C5CC5)c3)CC4)cc12 [Compound Z456] |
| 136 | C[C@H]1COCCN1C(=O)N1CCc2cc(-c3cnc4[nH]cc(Cl)c4c3)cc([C@@H]3COCCN3)c2C1 [Compound Z613] |
| 245 | Cc1c[nH]c2ncc(-c3cc4c(c([C@@H]5COCCN5)c3)CN(C(=O)N3CCC5(CCOCC5)C3)CC4)cc12 [Compound Z565, (R)-(6-(3-methyl-1H-pyrrolo[2,3-b]pyridin-5-yl)-8-(morpholin-3-yl)-3,4-dihydroisoquinolin-2(1H)-yl)(8-oxa-2-azaspiro[4.5]decan-2-yl)methanone] |
| 263 | Cc1c[nH]c2ncc(-c3cc4c(c([C@@H]5COCCN5)c3)CN(C(=O)C3(C)COC3)CC4)cc12 [Compound Z505, (R)-(6-(3-methyl-1H-pyrrolo[2,3-b]pyridin-5-yl)-8-(morpholin-3-yl)-3,4-dihydroisoquinolin-2(1H)-yl)(3-methyloxetan-3-yl)methanone] |
| 524 | CCc1c[nH]c2ncc(-c3cc4c(c([C@@H]5COCCN5)c3)CN(C(=O)C(C)(C)O)CC4)nc12 [Compound Z540, (R)-1-(6-(7-ethyl-5H-pyrrolo[2,3-b]pyrazin-2-yl)-8-(morpholin-3-yl)-3,4-dihydroisoquinolin-2(1H)-yl)-2-hydroxy-2-methylpropan-1-one] |
| 255 | Cc1c[nH]c2ncc(-c3cc4c(c([C@@H]5COCCN5)c3)CN(C(=O)N3CC5CCC(C3)N5C)CC4)cc12 [Compound Z462] |
| 171 | Cc1c[nH]c2ncc(-c3cc4c(c([C@@H]5COCCN5)c3)CN(C(=O)N3CC(C)OC(C)C3)CC4)cc12 (stereo partly drawn) [Compound Z459, (2,6-dimethylmorpholine)(6-(3-methyl-1H-pyrrolo[2,3-b]pyridin-5-yl)-8-((R)-morpholin-3-yl)-3,4-dihydroisoquinolin-2(1H)-yl)methanone] |
| 134 | CCc1c(Cl)[nH]c2ncc(-c3cc4c(c([C@@H]5COCCN5)c3)CN(C(=O)N3CC5CCC(C3)O5)CC4)cc12 [Compound Z514, (8-oxo-3-azabicyclo[3.2.1]octane-3-yl)(6-(2-chloro-3-ethyl-1H-pyrrolo[2,3-b]pyridin-5-yl)-8-((R)-morpholin-3-yl)-3,4-dihydroisoquinolin-2(1H)-yl)methanone] |
